Assay results published in ChEMBL document CHEMBL5649166, “RIP3 induces apoptosis independent of pronecrotic kinase activity” (Mol Cell, 2014).

Key:
[1] = biological target: T1, Ephrin type-B receptor 1 (Homo sapiens) (UniProt P54762); test: Inhibition of human EPHB1 using poly[Glu:Tyr] (4:1) as substrate at 1 uM in presence of 32P-ATP by Hotspot assay relative to control; values are per cent of control
T1 sequence (whole entry): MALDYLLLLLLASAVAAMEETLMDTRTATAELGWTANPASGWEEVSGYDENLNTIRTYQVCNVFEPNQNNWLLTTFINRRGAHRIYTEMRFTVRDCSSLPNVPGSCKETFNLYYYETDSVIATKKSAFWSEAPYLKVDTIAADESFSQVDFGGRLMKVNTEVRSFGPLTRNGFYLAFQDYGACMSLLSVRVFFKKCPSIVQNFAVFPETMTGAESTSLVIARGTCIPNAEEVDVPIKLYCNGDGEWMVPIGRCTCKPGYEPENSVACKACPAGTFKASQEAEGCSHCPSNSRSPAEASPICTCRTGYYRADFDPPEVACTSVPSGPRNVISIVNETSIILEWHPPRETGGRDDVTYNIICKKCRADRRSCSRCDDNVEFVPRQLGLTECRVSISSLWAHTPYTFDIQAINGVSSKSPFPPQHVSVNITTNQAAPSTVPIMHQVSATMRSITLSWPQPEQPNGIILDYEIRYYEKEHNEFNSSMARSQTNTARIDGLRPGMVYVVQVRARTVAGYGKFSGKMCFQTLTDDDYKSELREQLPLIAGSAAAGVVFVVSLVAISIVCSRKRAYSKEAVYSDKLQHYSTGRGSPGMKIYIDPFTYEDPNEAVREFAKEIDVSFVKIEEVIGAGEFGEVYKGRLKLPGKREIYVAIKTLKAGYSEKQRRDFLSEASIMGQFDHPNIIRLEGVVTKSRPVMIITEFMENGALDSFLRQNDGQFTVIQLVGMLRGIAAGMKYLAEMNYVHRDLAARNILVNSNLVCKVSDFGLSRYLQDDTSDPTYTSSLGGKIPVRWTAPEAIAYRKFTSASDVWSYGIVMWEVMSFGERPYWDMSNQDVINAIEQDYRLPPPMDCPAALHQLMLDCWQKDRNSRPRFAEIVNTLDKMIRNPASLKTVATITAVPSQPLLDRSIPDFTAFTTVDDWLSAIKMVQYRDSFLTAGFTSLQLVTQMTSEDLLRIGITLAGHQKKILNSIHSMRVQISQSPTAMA

[2] = biological target: T2, 3-phosphoinositide-dependent protein kinase 1 (Homo sapiens) (UniProt O15530); test: Inhibition of human PDK1/PDPK1 using KTFCGTPEYLAPEVRREPRILSEEEQEMFRDFDYIADWC as substrate at 1 uM in presence of 32P-ATP by Hotspot assay relative to control; values are per cent of control
T2 sequence (whole entry): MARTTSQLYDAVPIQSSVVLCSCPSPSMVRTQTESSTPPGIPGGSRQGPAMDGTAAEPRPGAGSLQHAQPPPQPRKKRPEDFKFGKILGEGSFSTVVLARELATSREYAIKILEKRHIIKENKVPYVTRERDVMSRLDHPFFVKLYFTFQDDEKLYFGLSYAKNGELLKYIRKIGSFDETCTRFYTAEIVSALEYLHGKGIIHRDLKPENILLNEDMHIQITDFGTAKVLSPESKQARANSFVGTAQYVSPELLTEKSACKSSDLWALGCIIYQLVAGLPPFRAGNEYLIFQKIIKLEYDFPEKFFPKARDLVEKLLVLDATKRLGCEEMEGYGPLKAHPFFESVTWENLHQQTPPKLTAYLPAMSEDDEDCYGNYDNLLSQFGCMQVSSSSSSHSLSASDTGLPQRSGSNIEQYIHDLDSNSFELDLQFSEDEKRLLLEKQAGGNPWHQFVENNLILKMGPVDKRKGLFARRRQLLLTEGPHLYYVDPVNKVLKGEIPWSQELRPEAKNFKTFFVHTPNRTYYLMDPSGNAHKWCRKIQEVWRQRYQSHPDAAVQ

[3] = biological target: Homeodomain-interacting protein kinase 2 (Homo sapiens) (UniProt Q9H2X6); test: Inhibition of human HIPK2 using myelin basic protein as substrate at 1 uM in presence of 32P-ATP by Hotspot assay relative to control; values are per cent of control
[4] = biological target: Proto-oncogene tyrosine-protein kinase Src (Homo sapiens) (UniProt P12931); test: Inhibition of human c-Src using poly[Glu:Tyr] (4:1) as substrate at 1 uM in presence of 32P-ATP by Hotspot assay relative to control; values are per cent of control
[5] = biological target: T3, Ephrin type-B receptor 3 (Homo sapiens) (UniProt P54753); test: Residual activity of human EPHB3 using poly[Glu:Tyr] (4:1) as substrate at 1 uM in presence of 32P-ATP by Hotspot assay relative to control
T3 sequence (whole entry): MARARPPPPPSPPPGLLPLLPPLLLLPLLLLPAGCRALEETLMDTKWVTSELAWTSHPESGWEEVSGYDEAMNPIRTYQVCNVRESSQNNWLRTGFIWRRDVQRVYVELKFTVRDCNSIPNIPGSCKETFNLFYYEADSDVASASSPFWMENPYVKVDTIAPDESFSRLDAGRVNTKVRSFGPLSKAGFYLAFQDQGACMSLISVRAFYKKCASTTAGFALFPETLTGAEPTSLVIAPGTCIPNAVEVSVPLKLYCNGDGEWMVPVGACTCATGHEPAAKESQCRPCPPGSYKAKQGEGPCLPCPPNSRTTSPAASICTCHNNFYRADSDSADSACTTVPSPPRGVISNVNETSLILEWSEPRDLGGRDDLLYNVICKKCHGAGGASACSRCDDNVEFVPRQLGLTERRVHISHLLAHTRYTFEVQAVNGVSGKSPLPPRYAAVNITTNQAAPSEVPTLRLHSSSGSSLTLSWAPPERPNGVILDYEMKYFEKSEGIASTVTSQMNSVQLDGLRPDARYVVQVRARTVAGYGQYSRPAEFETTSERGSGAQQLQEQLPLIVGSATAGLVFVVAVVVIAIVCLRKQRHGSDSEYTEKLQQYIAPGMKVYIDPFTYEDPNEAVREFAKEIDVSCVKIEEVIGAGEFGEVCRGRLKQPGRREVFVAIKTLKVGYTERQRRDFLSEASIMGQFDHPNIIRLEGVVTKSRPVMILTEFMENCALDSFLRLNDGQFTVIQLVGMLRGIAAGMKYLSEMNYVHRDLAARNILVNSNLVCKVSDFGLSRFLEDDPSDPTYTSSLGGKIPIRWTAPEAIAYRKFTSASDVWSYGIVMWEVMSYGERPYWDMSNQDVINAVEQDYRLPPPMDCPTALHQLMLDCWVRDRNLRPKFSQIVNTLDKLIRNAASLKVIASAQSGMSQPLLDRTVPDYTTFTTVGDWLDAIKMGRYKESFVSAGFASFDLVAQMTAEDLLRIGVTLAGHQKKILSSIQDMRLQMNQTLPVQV

Homeodomain-interacting protein kinase 2 (Homo sapiens), sequence (Q9H2X6 whole entry, looked up): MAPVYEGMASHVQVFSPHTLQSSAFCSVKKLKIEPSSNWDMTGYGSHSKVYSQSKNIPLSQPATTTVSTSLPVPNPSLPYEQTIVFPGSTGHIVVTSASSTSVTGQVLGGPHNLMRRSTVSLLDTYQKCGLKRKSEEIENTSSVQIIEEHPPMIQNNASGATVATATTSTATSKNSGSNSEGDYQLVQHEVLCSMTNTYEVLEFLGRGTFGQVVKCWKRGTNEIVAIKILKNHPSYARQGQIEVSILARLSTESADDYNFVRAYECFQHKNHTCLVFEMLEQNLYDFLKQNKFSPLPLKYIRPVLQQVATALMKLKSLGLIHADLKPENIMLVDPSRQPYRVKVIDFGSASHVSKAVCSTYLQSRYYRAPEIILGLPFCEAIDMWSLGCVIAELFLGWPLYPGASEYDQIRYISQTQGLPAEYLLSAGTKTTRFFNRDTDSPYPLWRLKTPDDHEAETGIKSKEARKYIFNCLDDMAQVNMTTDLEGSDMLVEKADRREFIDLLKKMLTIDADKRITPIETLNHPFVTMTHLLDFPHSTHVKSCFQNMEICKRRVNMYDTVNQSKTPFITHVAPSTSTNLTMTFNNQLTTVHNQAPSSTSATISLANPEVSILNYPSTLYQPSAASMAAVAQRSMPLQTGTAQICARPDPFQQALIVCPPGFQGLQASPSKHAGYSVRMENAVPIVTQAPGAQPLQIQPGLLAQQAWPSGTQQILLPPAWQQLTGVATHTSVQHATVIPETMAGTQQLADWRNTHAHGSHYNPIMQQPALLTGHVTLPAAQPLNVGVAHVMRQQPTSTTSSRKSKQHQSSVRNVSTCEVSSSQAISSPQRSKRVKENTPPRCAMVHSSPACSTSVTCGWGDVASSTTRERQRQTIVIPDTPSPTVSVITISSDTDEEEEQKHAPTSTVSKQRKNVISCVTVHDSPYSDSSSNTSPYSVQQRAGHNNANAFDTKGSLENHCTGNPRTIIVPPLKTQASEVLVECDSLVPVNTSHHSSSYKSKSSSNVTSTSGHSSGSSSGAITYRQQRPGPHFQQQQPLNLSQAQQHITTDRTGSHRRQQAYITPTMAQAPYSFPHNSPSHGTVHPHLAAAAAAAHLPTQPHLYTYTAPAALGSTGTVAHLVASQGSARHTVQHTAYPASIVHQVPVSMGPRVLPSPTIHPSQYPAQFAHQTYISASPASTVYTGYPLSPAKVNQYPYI
Proto-oncogene tyrosine-protein kinase Src (Homo sapiens), sequence (P12931 2-536 limits assumed): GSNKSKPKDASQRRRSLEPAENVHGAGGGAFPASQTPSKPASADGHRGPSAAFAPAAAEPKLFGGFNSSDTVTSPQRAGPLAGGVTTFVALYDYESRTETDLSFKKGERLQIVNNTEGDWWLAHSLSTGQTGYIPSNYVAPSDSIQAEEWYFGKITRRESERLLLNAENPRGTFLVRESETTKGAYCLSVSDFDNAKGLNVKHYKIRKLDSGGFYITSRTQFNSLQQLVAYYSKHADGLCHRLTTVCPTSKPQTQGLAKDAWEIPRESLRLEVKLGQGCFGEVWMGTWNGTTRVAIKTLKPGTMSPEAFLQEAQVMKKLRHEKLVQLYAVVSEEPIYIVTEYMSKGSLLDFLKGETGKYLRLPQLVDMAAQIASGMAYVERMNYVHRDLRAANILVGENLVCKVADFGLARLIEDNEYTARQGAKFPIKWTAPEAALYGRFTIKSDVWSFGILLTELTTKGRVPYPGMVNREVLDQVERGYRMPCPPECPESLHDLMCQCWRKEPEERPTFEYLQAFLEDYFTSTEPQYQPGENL

Row | Compound | residual activity [1] [%] | residual activity [2] [%] | residual activity [3] [%] | residual activity [4] [%] | residual activity [5] [%]
1 | Cc1cc(-c2cnc(N)c3c(-c4ccc5scnc5c4)csc23)n(C)n1 | 36.8 | 101 | 95.9 | 37.1 | 91.4
2 | CC(C)S(=O)(=O)c1ccc2nccc(Nc3ccc4scnc4c3)c2c1 | 79 | 98.6 | 101 | 28.3 | 61.2
3 | CNC(=O)c1ccc2c(c1)ncn2-c1ccc(CC(=O)OC(C)(C)C)cc1 | 104 | 100 | 88.1 | 80 | 93.6
